Laboratory results from US20030157583A1, “Methods for determining squalene synthase activity” (priority 2001, published 2003).

B1: truncated squalene synthase (tSqS) (Arabidopsis thaliana) (protein)
chain: MGSLGTMLRYPDDIYPLLKMKRAIEKAEKQIPPEPHWGFCYSMLHKVSRSFSLVIQQLNTELRNAVCVFYLVLRALDTVEDDTSIPTDEKVPILIAFHRHIYDTDWHYSCGTKEYKILMDQFHHVSAAFLELEKGYQEAIEEITRRMGAGMAKFICQEVETVDDYDEYCHYVAGLVGLGLSKLFLAAGSEVLTPDWEAISNSMGLFLQKTNIIRDYLEDINEIPKSRMFWPREIWGKYADKLEDLKYEENTNKSVQCLNEMVTNALMHIEDCLKYMVSLRDPSIFRFCAIPQIMAIGTLALCYNNEQVFRGVVKLRRGLTAKVIDRTKTMADVYGAFYDFSCMLKTKVDKNDPNASKTLNRLEAVQKLCRDAGVLQNRKSYVNDKGQP

Columns and labels:
[1] = molecular target: T1, truncated squalene synthase (tSqS) (Arabidopsis thaliana, UniProt P53799); assay: biochemical
T1 sequence (P53799 1-388 limits assumed): B1 chain
Excerpt: The conversion of the intermediate PSPP into squalene requires magnesium as a cofactor.

[2] = substrate: CC(C)=CCC/C(C)=C/CC/C(C)=C/CO[P@@](=O)(O)OP(=O)(O)O; assay: purified protein, by the assay type; details: other: initial velocity vs FPP concentration, 50 ng tSqS, 100 μM NADPH, 10 mM MgCl2, 37° C., pH 7.5

Molecule | IC50 [1] [mM] | Km [2] [µM]
O=C(O)CN(CCN(CC(=O)O)CC(=O)O)CC(=O)O [EDTA] | ~8 | –
B1 | – | 42
